± gives the uncertainty stated by the source.
Assay: xn = mol fraction of the nth substance listed

CCCCCCCCCCCCCC[P+](CCCCCC)(CCCCCC)CCCCCC.Cc1ncc([N+](=O)[O-])[n-]1 + COCCOCCOCCOCCOC
viscosity [mPa·s], 100 kPa
Details	278.15 K	283.15 K	288.15 K	293.15 K	298.15 K	303.15 K	308.15 K	313.15 K	318.15 K	323.15 K
x2 = 0.151	2535 ± 200	1685 ± 120	1140 ± 74	791 ± 46	563 ± 29	411 ± 18	306 ± 12	232 ± 8	179 ± 5	141 ± 3
x2 = 0.399	595 ± 31	425 ± 19	308 ± 12	228 ± 8	173 ± 5	134 ± 3	106 ± 2	85 ± 1	69 ± 1	57 ± 1

CCCC[n+]1ccn(C)c1.N[C@@H](CC(=O)O)C(=O)[O-] + CO
101 kPa
Details	electrical conductivity [S/m]
298.15 K, x2 = 0.2999	0.101 ± 0.016
298.15 K, x2 = 0.5015	0.161 ± 0.026
298.15 K, x2 = 0.7957	0.64 ± 0.1
298.15 K, x2 = 0.8988	1.13 ± 0.18
303.15 K, x2 = 0.1999	0.108 ± 0.017
303.15 K, x2 = 0.5949	0.241 ± 0.039
303.15 K, x2 = 0.6969	0.377 ± 0.06
308.15 K, x2 = 0.398	0.218 ± 0.035
308.15 K, x2 = 0.6969	0.496 ± 0.079
308.15 K, x2 = 0.9214	1.39 ± 0.22
308.15 K, x2 = 0.975	1.36 ± 0.22
318.15 K, x2 = 0.1999	0.212 ± 0.034
318.15 K, x2 = 0.5015	0.378 ± 0.06
318.15 K, x2 = 0.7957	0.98 ± 0.16
318.15 K, x2 = 0.8988	1.42 ± 0.23

CC[n+]1ccn(C)c1.O=S(=O)([O-])C(F)(F)F + F[B-](F)(F)F.[Li+]
101 kPa, x1 = 1
Details	electrical conductivity [S/m]
288.15 K	0.605 ± 0.061
298.15 K	0.859 ± 0.086
333.15 K	2.24 ± 0.22

CC[n+]1ccn(C)c1.O=S(=O)([O-])C(F)(F)F + [I-].[Li+]
101 kPa, x1 = 1
Details	electrical conductivity [S/m]
288.15 K	0.605 ± 0.061
298.15 K	0.859 ± 0.086
333.15 K	2.24 ± 0.22

CC[NH+](C)CC.CS(=O)(=O)[O-] + O
Details	viscosity [mPa·s]
293.1 K, 101 kPa, x2 = 0.707	21 ± 0.26
298.15 K, 100 kPa, x1 = 0.0967	4.51 ± 0.45
298.15 K, 100 kPa, x1 = 0.4263	31.1 ± 3.1
298.15 K, 100 kPa, x1 = 0.6771	69.7 ± 7.1
303.15 K, 100 kPa, x1 = 0.0967	3.94 ± 0.4
303.15 K, 100 kPa, x1 = 0.3246	16.6 ± 1.7
303.15 K, 100 kPa, x1 = 0.6771	55.2 ± 5.6
308.15 K, 100 kPa, x1 = 0.0155	1.04 ± 0.11
308.15 K, 100 kPa, x1 = 0.5018	27.9 ± 2.8
308.15 K, 100 kPa, x1 = 0.5783	34.2 ± 3.5
308.15 K, 100 kPa, x1 = 0.7782	55.3 ± 5.6
313.1 K, 101 kPa, x2 = 0.372	27.27 ± 0.4
313.15 K, 100 kPa, x1 = 0.0571	1.79 ± 0.18
313.15 K, 100 kPa, x1 = 0.3246	11.8 ± 1.2
313.15 K, 100 kPa, x1 = 0.4263	18 ± 1.8
318.15 K, 100 kPa, x1 = 0.1582	4.46 ± 0.45
328.15 K, 100 kPa, x1 = 0.1582	3.46 ± 0.35
328.15 K, 100 kPa, x1 = 0.206	4.6 ± 0.46
328.15 K, 100 kPa, x1 = 0.5018	14.1 ± 1.4
328.15 K, 100 kPa, x1 = 0.7782	25.4 ± 2.6
333.1 K, 101 kPa, x2 = 0.372	13.95 ± 0.18
333.1 K, 101 kPa, x2 = 0.507	9.98 ± 0.13
333.15 K, 100 kPa, x1 = 0.0967	1.97 ± 0.2
333.15 K, 100 kPa, x1 = 0.3246	6.65 ± 0.67
333.15 K, 100 kPa, x1 = 0.5018	12.2 ± 1.2
338.15 K, 100 kPa, x1 = 0.0571	1.11 ± 0.11
338.15 K, 100 kPa, x1 = 0.3246	5.84 ± 0.59
338.15 K, 100 kPa, x1 = 0.4263	8.21 ± 0.83
338.15 K, 100 kPa, x1 = 0.5018	10.3 ± 1
338.15 K, 100 kPa, x1 = 0.5783	12.2 ± 1.2
338.15 K, 100 kPa, x1 = 0.6771	15.3 ± 1.6
353.1 K, 101 kPa, x2 = 0.449	6.83 ± 0.09
353.1 K, 101 kPa, x2 = 0.624	4.58 ± 0.06

CC[n+]1ccn(C)c1.O=S(=O)([O-])C(F)(F)F + CS(C)=O + CC#N
viscosity [mPa·s], 100 kPa
Details	298.15 K	303.15 K	308.15 K	313.15 K	318.15 K	323.15 K
x1 = 0.1068, x2 = 0.8932	3.7 ± 1.1	–	–	–	–	–
x1 = 0.2015, x2 = 0.7985	5.3 ± 1.6	4.7 ± 1.4	–	3.8 ± 1.1	3.4 ± 1	–
x1 = 0.2065, x2 = 0.6555	3.5 ± 1.1	–	–	–	–	–
x1 = 0.2333, x2 = 0.6152	3.7 ± 1.1	–	–	–	–	–
x1 = 0.2695, x2 = 0.5629	4.1 ± 1.2	3.7 ± 1.1	3.4 ± 1	–	–	–
x1 = 0.3077, x2 = 0.6923	7.9 ± 2.4	–	6.1 ± 1.8	5.4 ± 1.6	4.9 ± 1.5	–
x1 = 0.3091, x2 = 0.5059	4.6 ± 1.4	4.2 ± 1.3	3.9 ± 1.2	3.5 ± 1.1	–	–
x1 = 0.3343, x2 = 0.4656	5.1 ± 1.5	4.6 ± 1.4	–	3.8 ± 1.1	3.5 ± 1	–
x1 = 0.361, x2 = 0.4229	5.6 ± 1.7	5 ± 1.5	4.6 ± 1.4	4.2 ± 1.3	3.8 ± 1.1	–
x1 = 0.3948, x2 = 0	4.5 ± 1.4	4.1 ± 1.2	3.8 ± 1.1	3.5 ± 1	–	–
x1 = 0.4023, x2 = 0.5977	–	–	8.9 ± 2.7	7.8 ± 2.4	7 ± 2.1	6.2 ± 1.9
x1 = 0.4096, x2 = 0.3523	6.7 ± 2	6 ± 1.8	5.4 ± 1.6	4.9 ± 1.5	4.4 ± 1.3	4.1 ± 1.2
x1 = 0.4353, x2 = 0.3096	7.4 ± 2.2	6.6 ± 2	–	5.3 ± 1.6	4.8 ± 1.4	–
x1 = 0.4741, x2 = 0.2498	8.5 ± 2.6	7.6 ± 2.3	6.7 ± 2	6 ± 1.8	5.5 ± 1.6	5 ± 1.5
x1 = 0.4933, x2 = 0.5067	–	–	–	–	9.3 ± 2.8	8.2 ± 2.5
x1 = 0.498, x2 = 0	7.4 ± 2.2	6.6 ± 2	6 ± 1.8	5.4 ± 1.6	4.9 ± 1.5	–
x1 = 0.5094, x2 = 0.1935	9.7 ± 2.9	8.6 ± 2.6	7.6 ± 2.3	6.8 ± 2.1	6.1 ± 1.8	5.5 ± 1.7
x1 = 0.5368, x2 = 0.1703	–	9.5 ± 2.8	8.4 ± 2.5	7.5 ± 2.2	6.7 ± 2	6 ± 1.8
x1 = 0.5656, x2 = 0.1458	–	–	9.2 ± 2.8	8.2 ± 2.5	7.3 ± 2.2	6.6 ± 2
x1 = 0.595, x2 = 0	–	9.5 ± 2.8	8.4 ± 2.5	7.5 ± 2.3	6.7 ± 2	6 ± 1.8
x1 = 0.5961, x2 = 0.12	–	–	–	9 ± 2.7	8 ± 2.4	7.2 ± 2.2
x1 = 0.6284, x2 = 0.0927	–	–	–	–	8.9 ± 2.7	7.9 ± 2.4
x1 = 0.6565, x2 = 0.0845	–	–	–	–	9.7 ± 2.9	8.6 ± 2.6
x1 = 0.686, x2 = 0.076	–	–	–	–	–	9.4 ± 2.8
x1 = 0.6936, x2 = 0	–	–	–	–	9.5 ± 2.8	8.3 ± 2.5
x1 = 0.7058, x2 = 0.0663	–	–	–	–	–	9.9 ± 3
x1 = 0.9005, x2 = 0	34 ± 10	–	–	–	–	–
x1 = 0.9008, x2 = 0.0992	39 ± 12	–	–	–	–	–
x1 = 1, x2 = 0	46 ± 14	38 ± 11	–	–	–	–

II + CCCC[n+]1ccn(C)c1.[I-]
Details	electrical conductivity [S/m]
298 K, 101.3 kPa, x2 = 0.333	3.07 ± 0.31

CCCCOC(C)=O + CCCCCCCCn1cc[n+](C)c1.F[B-](F)(F)F
Details	viscosity [mPa·s]
298.15 K, 101 kPa, x1 = 1	0.7 ± 0.01

CCc1n(S(=O)(=O)O)cc[n+]1S(=O)(=O)O.O=C([O-])C(F)(F)F + CC#N
101 kPa
Details	electrical conductivity [S/m]
278.15 K, x1 = 0.02551	1.22 ± 0.024
283.15 K, x1 = 0.02551	1.21 ± 0.024
288.15 K, x1 = 0.02551	1.2 ± 0.024
293.15 K, x1 = 0.02551	1.11 ± 0.022
298.15 K, x1 = 0.0052	0.323 ± 0.006
298.15 K, x1 = 0.0104	0.517 ± 0.01
298.15 K, x1 = 0.0155	0.736 ± 0.015
298.15 K, x1 = 0.0205	0.989 ± 0.02
298.15 K, x1 = 0.0255	1.11 ± 0.022
298.15 K, x1 = 0.02551	1.11 ± 0.022
303.15 K, x1 = 0.02551	0.823 ± 0.016
308.15 K, x1 = 0.02551	0.824 ± 0.016
313.15 K, x1 = 0.02551	0.816 ± 0.016
318.15 K, x1 = 0.02551	0.767 ± 0.015
323.15 K, x1 = 0.02551	0.755 ± 0.015
328.15 K, x1 = 0.02551	0.689 ± 0.014
333.15 K, x1 = 0.02551	0.652 ± 0.013

CCCCCCCC[n+]1cccc(C)c1.F[B-](F)(F)F + O
298.15 K, 101 kPa
Details	electrical conductivity [S/m]
x1 = 4.685e-05	0.024 ± 0.02
x1 = 0.0001279	0.063 ± 0.02
x1 = 0.000272	0.127 ± 0.02
x1 = 0.0003045	0.142 ± 0.02
x1 = 0.0004197	0.19 ± 0.02
x1 = 0.0005619	0.248 ± 0.02
x1 = 0.0007023	0.308 ± 0.02
x1 = 0.0007922	0.33 ± 0.02
x1 = 0.0008948	0.377 ± 0.02
x1 = 0.0009955	0.402 ± 0.02
x1 = 0.00103	0.408 ± 0.02
x1 = 0.001107	0.419 ± 0.02
x1 = 0.001265	0.42 ± 0.02
x1 = 0.00128	0.42 ± 0.02
x1 = 0.001371	0.421 ± 0.02
x1 = 0.001459	0.421 ± 0.02
x1 = 0.001608	0.422 ± 0.02
x1 = 0.00177	0.422 ± 0.02
x1 = 0.001919	0.422 ± 0.02
x1 = 0.002066	0.423 ± 0.02
x1 = 0.002642	0.425 ± 0.02

CCCC[P+](CC)(CCCC)CCCC.[Br-] + OCCOCCO
101 kPa, x1 = 0.333
Details	viscosity [mPa·s]
333.15 K	23.07 ± 0.24
353.15 K	12.73 ± 0.13

C[n+]1ccn(CCCC#N)c1.F[B-](F)(F)F + CC#N
100 kPa
Details	electrical conductivity [S/m]
288.15 K, x1 = 0.5996	0.36 ± 0.14
293.15 K, x1 = 0.4999	0.69 ± 0.19
293.15 K, x1 = 0.5996	0.47 ± 0.16
303.15 K, x1 = 0.4999	1 ± 0.23
303.15 K, x1 = 0.8885	0.31 ± 0.13
308.15 K, x1 = 0.7001	0.72 ± 0.2
323.15 K, x1 = 0.8024	0.87 ± 0.22

COCC[n+]1ccn(C)c1.C[C@@H](O)[C@H](N)C(=O)[O-] + O
100 kPa
Details	viscosity [mPa·s]
303.15 K, x1 = 0.5348	557 ± 45
303.15 K, x1 = 0.6571	581 ± 48
308.15 K, x1 = 0.3313	297 ± 18
318.15 K, x1 = 0.5348	163.8 ± 6.7
323.15 K, x1 = 0.4476	114.9 ± 3.4
323.15 K, x1 = 0.5348	120.9 ± 3.8
323.15 K, x1 = 0.6571	126.6 ± 4.2

— the CheMixHub ionic liquid set
